# According to ChEMBL document CHEMBL4616700, “Novel HIV-1 Protease Inhibitors with Morpholine as the P2 Ligand to Enhance Activity against DRV-Resistant Variants” (ACS Med Chem Lett, 2020):
# Experiments:
# [1] = tested on: Human immunodeficiency virus 1; assay: Antiviral activity against wild type HIV-1; type: functional, organism-based
# [2] = target: Human immunodeficiency virus type 1 protease (Human immunodeficiency virus 1, UniProt Q72874); assay: (§1) Inhibition of wild type HIV1 protease expressed in Escherichia coli using Arg-Glu (EDANS)-Ser-Gln-Asn-Tyr-Pro-Ile-Val-Gln-Lys(DABCYL)-Arg as substrate preincubated for 20 to 30 mins followed by substrate addition and measured for 10 mins by FRET assay
# [3] = tested on: Human immunodeficiency virus 1; assay: (§2) Antiviral activity against VSV-G pseudotyped darunavir-resistant HIV1 NL4-3 in human SupT1 cells infected with supernatants of virus particles extracted from human 293T cells infected with darunavir-resistant HIV1 NL4-3 incubated for 48 hrs assessed as inhibition of late stage viral infection by single-round infection based luciferase reporter assay; type: functional, organism-based; settings: Human immunodeficiency virus 1, NL4-3, 48 h
# [4] = tested on: Human immunodeficiency virus 1; assay: Antiviral activity against VSV-G pseudotyped HIV1 NL4-3 in human TZM-bl cells infected with virus particles extracted from human SupT1 cells infected with HIV1 NL4-3 at 10 uM incubated for 48 hrs assessed as inhibition of late stage viral infection by luciferase assay relative to control; type: functional; settings: Human immunodeficiency virus 1, NL4-3, TZM
# [5] = tested on: Human immunodeficiency virus 1; assay: as §2, with “wild type” for “darunavir-resistant”; type: functional, organism-based; settings: Human immunodeficiency virus 1, NL4-3, 48 h
# [6] = tested on: Human immunodeficiency virus 1; assay: Antiviral activity against VSV-G pseudotyped HIV1 NL4-3 infected in human SupT1 cells assessed as inhibition of early stage viral infection at 10 uM after 48 hrs by luciferase assay relative to control; type: functional; settings: Human immunodeficiency virus 1, NL4-3, SUP-T1, 48 h
# [7] = tested on: Human immunodeficiency virus 1; assay: Potency index, ratio of Darunavir IC50 to compound IC50 for antiviral activity against wild type HIV-1; type: functional
# [8] = target: Human immunodeficiency virus type 1 protease (Human immunodeficiency virus 1) (UniProt Q72874); assay: as §1, with “Potency index, ratio of Darunavir Ki to compound Ki for inhibition” for “Inhibition”
Compound,IC50 [1] [nM],Ki [2] [nM],also measured
CC(C)CN(C[C@@H](O)[C@H](Cc1ccccc1)NC(=O)N1CCOCC1)S(=O)(=O)c1ccc(N)cc1,32.5,7.28,
CC(C)CN(C[C@@H](O)[C@H](Cc1ccccc1)NCCN1CCOCC1)S(=O)(=O)c1ccc(C(F)(F)F)cc1,1500,336,
CC(C)CN(C[C@@H](O)[C@H](Cc1ccccc1)NC(=O)OCCN1CCOCC1)S(=O)(=O)c1ccc(C(F)(F)F)cc1,9.92,2.22,
CC(C)CN(C[C@@H](O)[C@H](Cc1ccccc1)NC(=O)CN1CCO[C@H](C)C1)S(=O)(=O)c1ccc(N)cc1,84.6,18.9,
CC(C)CN(C[C@@H](O)[C@H](Cc1ccccc1)NC[C@H](O)CN1CCOCC1)S(=O)(=O)c1ccc(C(F)(F)F)cc1,1500,651,
CC(C)CN(C[C@@H](O)[C@H](Cc1ccccc1)NC(=O)N1CCOCC1)S(=O)(=O)c1ccc(C(F)(F)F)cc1,75,16.8,
CC(C)CN(C[C@@H](O)[C@H](Cc1ccccc1)NCC(=O)N1CCOCC1)S(=O)(=O)c1ccc(N)cc1,102,22.8,
CC(C)CN(C[C@@H](O)[C@H](Cc1ccccc1)NC(=O)CN1CCO[C@H](C)C1)S(=O)(=O)c1ccc(C(F)(F)F)cc1,272,61,
CC(C)CN(C[C@@H](O)[C@H](Cc1ccccc1)NC(=O)O[C@H]1CO[C@H]2OCC[C@H]21)S(=O)(=O)c1ccc(N)cc1,,,EC50 [3]: 240 nM; inhibition at 10 µM [4]: 100%; EC50 [5]: 3.9 nM
COc1ccc(S(=O)(=O)N(CC(C)C)C[C@@H](O)[C@H](Cc2ccccc2)NC(=O)CN2CCO[C@H](C)C2)cc1,63.6,14.2,
CC(C)CN(C[C@@H](O)[C@H](Cc1ccccc1)NC(=O)CN1CCOCC1)S(=O)(=O)c1ccc(N)cc1,37.7,8.45,
COc1ccc(S(=O)(=O)N(CC(C)C)C[C@@H](O)[C@H](Cc2ccccc2)NC[C@H](O)CN2CCOCC2)cc1,1500,750,
COc1ccc(S(=O)(=O)N(CC(C)C)C[C@@H](O)[C@H](Cc2ccccc2)NC(=O)OCCN2CCOCC2)cc1,0.41,0.09,inhibition at 10 µM [6]: 5%; EC50 [3]: 9500 nM; Ratio IC50 [7]: 4; inhibition at 10 µM [4]: 94%; EC50 [5]: 1200 nM; Ratio Ki [8]: 4
CC(C)CN(C[C@@H](O)[C@H](Cc1ccccc1)NC(=O)CN1CCO[C@@H](C)C1)S(=O)(=O)c1ccc(C(F)(F)F)cc1,419,93.9,
CC(C)CN(C[C@@H](O)[C@H](Cc1ccccc1)NC(=O)OCCN1CCOCC1)S(=O)(=O)c1ccc(N)cc1,3.85,0.86,
CC(C)CN(C[C@@H](O)[C@H](Cc1ccccc1)NC(=O)CN1CCO[C@@H](C)C1)S(=O)(=O)c1ccc(N)cc1,127,28.4,
COc1ccc(S(=O)(=O)N(CC(C)C)C[C@@H](O)[C@H](Cc2ccccc2)NC(=O)N2CCOCC2)cc1,0.95,0.21,inhibition at 10 µM [6]: 12%; EC50 [3]: 4900 nM; Ratio IC50 [7]: 2; inhibition at 10 µM [4]: 91%; EC50 [5]: 2000 nM; Ratio Ki [8]: 2
CC(C)CN(C[C@@H](O)[C@H](Cc1ccccc1)NCCN1CCOCC1)S(=O)(=O)c1ccc(N)cc1,429,96.2,
COc1ccc(S(=O)(=O)N(CC(C)C)C[C@@H](O)[C@H](Cc2ccccc2)NCCN2CCOCC2)cc1,1110,250,
COc1ccc(S(=O)(=O)N(CC(C)C)C[C@@H](O)[C@H](Cc2ccccc2)NC(=O)CN2CCO[C@@H](C)C2)cc1,25.5,5.71,
CC(C)CN(C[C@@H](O)[C@H](Cc1ccccc1)NC(=O)CN1CCOCC1)S(=O)(=O)c1ccc(C(F)(F)F)cc1,44.2,9.9,
CC(C)CN(C[C@@H](O)[C@H](Cc1ccccc1)NCC(=O)N1CCOCC1)S(=O)(=O)c1ccc(C(F)(F)F)cc1,568,127,
COc1ccc(S(=O)(=O)N(CC(C)C)C[C@@H](O)[C@H](Cc2ccccc2)NCC(=O)N2CCOCC2)cc1,1330,298,
CC(C)CN(C[C@@H](O)[C@H](Cc1ccccc1)NC[C@H](O)CN1CCOCC1)S(=O)(=O)c1ccc(N)cc1,881,197,
COc1ccc(S(=O)(=O)N(CC(C)C)C[C@@H](O)[C@H](Cc2ccccc2)NC(=O)CN2CCOCC2)cc1,33.2,7.44,
